Experimental data reported in patent publication US20250163168A1, “NOVEL ANTIBODIES AND ANTIBODY CONJUGATES FOR THE TREATMENT OF METABOLIC DISORDERS” (PFIZER INC., priority 2023, published 2025).
Square brackets hold non-standard residues; d marks the D form. Ends that are not written are not given here. * marks the point of attachment. Aib = CC(C)(N)C(=O)O; BrAc = O=C(CBr)*

Biological target: T1, human GLP1R (Homo sapiens, UniProt P43220)
T1 construct: expressed in transfected cells; host or cells: CHO
T1 sequence (P43220 24-463): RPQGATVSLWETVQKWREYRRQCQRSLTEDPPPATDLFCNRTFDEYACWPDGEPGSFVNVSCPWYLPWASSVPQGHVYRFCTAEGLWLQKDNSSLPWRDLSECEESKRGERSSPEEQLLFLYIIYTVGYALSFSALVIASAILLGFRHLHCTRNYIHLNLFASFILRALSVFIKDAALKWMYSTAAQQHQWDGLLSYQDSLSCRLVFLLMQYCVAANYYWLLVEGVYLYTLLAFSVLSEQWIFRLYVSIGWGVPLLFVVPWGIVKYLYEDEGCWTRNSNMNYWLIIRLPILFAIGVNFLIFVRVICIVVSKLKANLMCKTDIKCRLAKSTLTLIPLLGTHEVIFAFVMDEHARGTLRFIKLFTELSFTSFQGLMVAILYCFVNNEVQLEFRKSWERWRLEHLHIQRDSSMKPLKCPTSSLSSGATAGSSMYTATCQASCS
Experiment: GLP1R agonist cAMP assay in CHO cells stably expressing human GLP1R
Format: cell-based
Settings: relative to maximal effect of human GLP-1, read-out: GLP1R agonist mode Emax (%)
Experimental: cAMP assay: The in vitro agonist potency of the peptides disclosed herein was evaluated using a cell-based assay measuring cAMP production. CHO cells stably expressing human GLP1R, or both human GIPR and GLP1R, were incubated with increasing concentrations of agonists for 30 minutes at 37° C. Cells were lysed and cAMP was detected using a homogenous time resolved fluorescence detection kit, as described by the manufacturer (Revvity). […] The EC50 and maximum effect (Emax) values were then determined from the normalized effects and agonist concentrations using a four-parameter logistic equation (GraphPad Prism).

Row | Emax | Molecule
1 | 109% | H[Aib]EGTFTSDYSSYLEEQAAKEFIAWLVKGRGGGGGSGGGGSGGGGSK(BrAc)-NH2 (C-terminus assumed) [compound 151]
2 | 122% | CC[C@H](C)[C@H](NC(=O)[C@H](Cc1ccccc1)NC(=O)[C@H](CCC(=O)O)NC(=O)[C@H](CCCCN)NC(=O)[C@H](C)NC(=O)[C@H](C)NC(=O)[C@H](CCC(N)=O)NC(=O)[C@H](CCC(=O)O)NC(=O)[C@H](CCC(=O)O)NC(=O)[C@H](CC(C)C)NC(=O)[C@H](Cc1ccc(O)cc1)NC(=O)[C@H](CO)NC(=O)[C@H](CO)NC(=O)[C@H](Cc1ccc(O)cc1)NC(=O)[C@H](CC(=O)O)NC(=O)[C@H](CO)NC(=O)[C@@H](NC(=O)[C@H](Cc1ccccc1)NC(=O)[C@@H](NC(=O)CNC(=O)[C@H](CCC(=O)O)NC(=O)C(C)(C)NC(=O)[C@@H](N)Cc1c[nH]cn1)[C@@H](C)O)[C@@H](C)O)C(=O)N[C@@H](C)C(=O)N[C@@H](Cc1c[nH]c2ccccc12)C(=O)N[C@@H](CC(C)C)C(=O)N[C@H](C(=O)N[C@@H](CCCCN)C(=O)NCC(=O)NCC(=O)NCC(=O)NCC(=O)NCC(=O)NCC(=O)NCC(=O)N[C@@H](CO)C(=O)NCC(=O)NCC(=O)NCC(=O)NCC(=O)N[C@@H](CO)C(=O)NCC(=O)NCC(=O)NCC(=O)NCC(=O)N[C@@H](CO)C(=O)N[C@@H](CCCCNC(=O)CBr)C(N)=O)C(C)C [compound 154]
3 | 109% | H[Aib]EGTFTSDVSSYLEEQAAKEFIAWLVKGGGGGGGSGGGGSGGGGSK(BrAc)-NH2 (C-terminus assumed) [compound 153]
4 | 107% | H[Aib]EGTFTSDYSSYLE[Aib]QAAKEFIAWLVKGRGGGGGSGGGGSGGGGSK(BrAc)-NH2 (C-terminus assumed) [compound 152]
